Test results reported in ChEMBL document CHEMBL1687837, “Roles of residues Cys69, Asn104, Phe160, Gly232, Ser237, and Asp240 in extended-spectrum beta-lactamase Toho-1” (2011).
Values after ≈ are worked out from the molar mass of the structure shown.

Legend:
[1] = tested on: Escherichia coli; experiment: Activity of Escherichia coli beta-lactamase Toho-1 N104D mutant assessed as compound hydrolysis by spectrophotometry
[2] = tested on: Escherichia coli; experiment: Activity of Escherichia coli beta-lactamase Toho-1 […] mutant assessed as compound hydrolysis by spectrophotometry
[3] = tested on: Escherichia coli; experiment: Activity of Escherichia coli beta-lactamase Toho-1 N104A mutant assessed as compound hydrolysis by spectrophotometry
[4] = tested on: Escherichia coli; experiment: Activity of Escherichia coli beta-lactamase Toho-1 D240S mutant assessed as compound hydrolysis by spectrophotometry
[5] = tested on: Escherichia coli; experiment: Activity of Escherichia coli beta-lactamase Toho-1 D240A mutant assessed as compound hydrolysis by spectrophotometry
[6] = tested on: Escherichia coli; experiment: Activity of Escherichia coli beta-lactamase Toho-1 C69A mutant assessed as compound hydrolysis by spectrophotometry
[7] = tested on: Escherichia coli; experiment: Activity of Escherichia coli beta-lactamase Toho-1 F160T mutant assessed as compound hydrolysis by spectrophotometry
[8] = tested on: Escherichia coli; experiment: Activity of Escherichia coli beta-lactamase Toho-1 G232A mutant assessed as compound hydrolysis by spectrophotometry
[9] = tested on: Escherichia coli; experiment: Ratio of Kcat to Km for Escherichia coli beta-lactamase Toho-1 N104A mutant assessed as compound hydrolysis by spectrophotometry
[10] = tested on: Escherichia coli; experiment: Ratio of Kcat to Km for Escherichia coli beta-lactamase Toho-1 N104D mutant assessed as compound hydrolysis by spectrophotometry
[11] = tested on: Escherichia coli; experiment: Ratio of Kcat to Km for Escherichia coli beta-lactamase Toho-1 […] mutant assessed as compound hydrolysis by spectrophotometry
[12] = tested on: Escherichia coli; experiment: Ratio of Kcat to Km for Escherichia coli beta-lactamase Toho-1 D240S mutant assessed as compound hydrolysis by spectrophotometry
[13] = tested on: Escherichia coli; experiment: Ratio of Kcat to Km for Escherichia coli beta-lactamase Toho-1 D240A mutant assessed as compound hydrolysis by spectrophotometry
[14] = tested on: Escherichia coli; experiment: Ratio of Kcat to Km for Escherichia coli beta-lactamase Toho-1 C69A mutant assessed as compound hydrolysis by spectrophotometry
[15] = tested on: Escherichia coli; experiment: Ratio of Kcat to Km for Escherichia coli beta-lactamase Toho-1 F160T mutant assessed as compound hydrolysis by spectrophotometry
[16] = tested on: Escherichia coli; experiment: Ratio of Kcat to Km for Escherichia coli beta-lactamase Toho-1 G232A mutant assessed as compound hydrolysis by spectrophotometry
[17] = tested on: Escherichia coli; experiment: Antibacterial activity against Escherichia coli AS226 carrying pBSD-H2 after 18 hrs by broth microdilution method; assay type: functional; conditions: AS226, 18 h
[18] = tested on: Escherichia coli; experiment: Antibacterial activity against Escherichia coli AS226 carrying pBSDN104A mutant after 18 hrs by broth microdilution method; assay type: functional; conditions: AS226, 18 h
[19] = tested on: Escherichia coli; experiment: Antibacterial activity against Escherichia coli AS226 carrying pBSDN104D mutant after 18 hrs by broth microdilution method; assay type: functional; conditions: AS226, 18 h
[20] = tested on: Escherichia coli; experiment: Antibacterial activity against Escherichia coli AS226 carrying pBSDS237A mutant after 18 hrs by broth microdilution method; assay type: functional; conditions: AS226, 18 h
[21] = tested on: Escherichia coli; experiment: Antibacterial activity against Escherichia coli AS226 carrying pBSDD240S mutant after 18 hrs by broth microdilution method; assay type: functional; conditions: AS226, 18 h
[22] = tested on: Escherichia coli; experiment: Antibacterial activity against Escherichia coli AS226 carrying pBSDD240A mutant after 18 hrs by broth microdilution method; assay type: functional; conditions: AS226, 18 h
[23] = tested on: Escherichia coli; experiment: Antibacterial activity against Escherichia coli AS226 carrying pBSDC69A mutant after 18 hrs by broth microdilution method; assay type: functional; conditions: AS226, 18 h
[24] = tested on: Escherichia coli; experiment: Antibacterial activity against Escherichia coli AS226 carrying pBSDF160T mutant after 18 hrs by broth microdilution method; assay type: functional; conditions: AS226, 18 h
[25] = tested on: Escherichia coli; experiment: Antibacterial activity against Escherichia coli AS226 carrying pBSD6 mutant after 18 hrs by broth microdilution method; assay type: functional; conditions: AS226, 18 h
[26] = tested on: Escherichia coli; experiment: Antibacterial activity against Escherichia coli AS226 after 18 hrs by broth microdilution method; assay type: functional; conditions: AS226, 18 h

Structure (SMILES): CC1(C)S[C@@H]2[C@H](NC(=O)[C@H](N)c3ccccc3)C(=O)N2[C@H]1C(=O)O [AMPICILLIN]
- Km [1]: 25 µM
- kcat [1]: 28 s⁻¹
- Km [2]: 120 µM
- kcat [2]: 310 s⁻¹
- Km [3]: 38 µM
- kcat [3]: 27 s⁻¹
- Km [4]: 25 µM
- kcat [4]: 33 s⁻¹
- Km [5]: 21 µM
- kcat [5]: 27 s⁻¹
- Km [6]: 20 µM
- kcat [6]: 38 s⁻¹
- Km [7]: 26 µM
- kcat [7]: 39 s⁻¹
- Km [8]: 35 µM
- kcat [8]: 37 s⁻¹
- kcat/Km [9]: 7.2 ×10⁵ /s/M
- kcat/Km [10]: 1.1 ×10⁶ /s/M
- kcat/Km [11]: 2.5 ×10⁶ /s/M
- kcat/Km [12]: 1.3 ×10⁶ /s/M
- kcat/Km [13]: 1.2 ×10⁶ /s/M
- kcat/Km [14]: 1.9 ×10⁶ /s/M
- kcat/Km [15]: 1.5 ×10⁶ /s/M
- kcat/Km [16]: 1.1 ×10⁶ /s/M
- MIC [17]: 256 µg/mL (≈ 733 µM)
- MIC [18]: 256 µg/mL (≈ 733 µM)
- MIC [19]: 1020 µg/mL (≈ 2930 µM)
- MIC [20]: 4100 µg/mL (≈ 11700 µM)
- MIC [21]: 512 µg/mL (≈ 1470 µM)
- MIC [22]: 512 µg/mL (≈ 1470 µM)
- MIC [23]: 1020 µg/mL (≈ 2930 µM)
- MIC [24]: 512 µg/mL (≈ 1470 µM)
- MIC [25]: 128 µg/mL (≈ 366 µM)
- MIC [26]: 1 µg/mL (≈ 2.86 µM)

Structure (SMILES): C[C@H]1[C@H](NC(=O)/C(=N\OC(C)(C)C(=O)O)c2csc(N)n2)C(=O)N1S(=O)(=O)O [AZTREONAM]
- Km [2]: 31 µM
- kcat [2]: 9.1 s⁻¹
- Km [3]: 240 µM
- kcat [3]: 8.6 s⁻¹
- Km [4]: 93 µM
- kcat [4]: 12 s⁻¹
- Km [5]: 100 µM
- kcat [5]: 15 s⁻¹
- Km [6]: 58 µM
- kcat [6]: 4.5 s⁻¹
- Km [7]: 69 µM
- kcat [7]: 6.6 s⁻¹
- Km [8]: 64 µM
- kcat [8]: 6.7 s⁻¹
- kcat/Km [9]: 3.5 ×10⁴ /s/M
- kcat/Km [10]: 1.9 ×10⁴ /s/M
- kcat/Km [11]: 2.9 ×10⁵ /s/M
- kcat/Km [12]: 1.3 ×10⁵ /s/M
- kcat/Km [13]: 1.5 ×10⁵ /s/M
- kcat/Km [14]: 7.7 ×10⁴ /s/M
- kcat/Km [15]: 9.6 ×10⁴ /s/M
- kcat/Km [16]: 1.1 ×10⁵ /s/M
- MIC [17]: 64 µg/mL (≈ 147 µM)
- MIC [18]: 8 µg/mL (≈ 18.4 µM)
- MIC [19]: 1 µg/mL (≈ 2.3 µM)
- MIC [20]: 128 µg/mL (≈ 294 µM)
- MIC [21]: 64 µg/mL (≈ 147 µM)
- MIC [22]: 128 µg/mL (≈ 294 µM)
- MIC [23]: 64 µg/mL (≈ 147 µM)
- MIC [24]: 16 µg/mL (≈ 36.7 µM)
- MIC [25]: 2 µg/mL (≈ 4.59 µM)
- MIC [26]: < 0.125 µg/mL

Structure (SMILES): CO/N=C(\C(=O)N[C@@H]1C(=O)N2C(C(=O)O)=C(COC(C)=O)CS[C@H]12)c1csc(N)n1 [CEFOTAXIME]
- Km [2]: 230 µM
- kcat [2]: 94 s⁻¹
- Km [4]: 320 µM
- kcat [4]: 370 s⁻¹
- Km [5]: 360 µM
- kcat [5]: 440 s⁻¹
- Km [6]: 350 µM
- kcat [6]: 370 s⁻¹
- Km [7]: 360 µM
- kcat [7]: 410 s⁻¹
- Km [8]: 259 µM
- kcat [8]: 440 s⁻¹
- kcat/Km [9]: 1.2 ×10⁵ /s/M
- kcat/Km [10]: 2.4 ×10⁵ /s/M
- kcat/Km [11]: 4.1 ×10⁵ /s/M
- kcat/Km [12]: 1.2 ×10⁶ /s/M
- kcat/Km [13]: 1.3 ×10⁶ /s/M
- kcat/Km [14]: 1 ×10⁶ /s/M
- kcat/Km [15]: 1.2 ×10⁶ /s/M
- kcat/Km [16]: 1.7 ×10⁶ /s/M
- MIC [17]: 256 µg/mL (≈ 562 µM)
- MIC [18]: 16 µg/mL (≈ 35.1 µM)
- MIC [19]: 256 µg/mL (≈ 562 µM)
- MIC [20]: 32 µg/mL (≈ 70.3 µM)
- MIC [21]: 1020 µg/mL (≈ 2250 µM)
- MIC [22]: 512 µg/mL (≈ 1120 µM)
- MIC [23]: 1020 µg/mL (≈ 2250 µM)
- MIC [24]: 256 µg/mL (≈ 562 µM)
- MIC [25]: 2 µg/mL (≈ 4.39 µM)
- MIC [26]: < 0.125 µg/mL

Structure (SMILES): CO[C@@]1(NC(=O)Cc2cccs2)C(=O)N2C(C(=O)O)=C(COC(N)=O)CS[C@@H]21 [CEFOXITIN]
- MIC [17]: 1 µg/mL (≈ 2.34 µM)
- MIC [18]: 1 µg/mL (≈ 2.34 µM)
- MIC [19]: 2 µg/mL (≈ 4.68 µM)
- MIC [20]: 2 µg/mL (≈ 4.68 µM)
- MIC [21]: 1 µg/mL (≈ 2.34 µM)
- MIC [22]: 1 µg/mL (≈ 2.34 µM)
- MIC [23]: 2 µg/mL (≈ 4.68 µM)
- MIC [24]: 2 µg/mL (≈ 4.68 µM)
- MIC [25]: 2 µg/mL (≈ 4.68 µM)
- MIC [26]: 1 µg/mL (≈ 2.34 µM)

Structure (SMILES): CC(C)(O/N=C(\C(=O)N[C@@H]1C(=O)N2C(C(=O)[O-])=C(C[n+]3ccccc3)CS[C@H]12)c1csc(N)n1)C(=O)O [CEFTAZIDIME]
- MIC [17]: 0.25 µg/mL (≈ 0.457 µM)
- MIC [18]: < 0.125 µg/mL
- MIC [19]: < 0.125 µg/mL
- MIC [20]: 0.5 µg/mL (≈ 0.915 µM)
- MIC [21]: 4 µg/mL (≈ 7.32 µM)
- MIC [22]: 8 µg/mL (≈ 14.6 µM)
- MIC [23]: 4 µg/mL (≈ 7.32 µM)
- MIC [24]: 1 µg/mL (≈ 1.83 µM)
- MIC [25]: 0.25 µg/mL (≈ 0.457 µM)
- MIC [26]: < 0.125 µg/mL
